Results taken from US20210220481A1, “BIOCOMPATIBLE TOLEROGENIC NANOPARTICLES” (INSERM (Institut National de la Santé et de la Recherche …, priority 2018, published 2021).

Legend:
Solubility = type: physicochemical
[1] = target: T1, aryl hydrocarbon receptor (AhR) (Mus musculus, UniProt P30561); assay: ITE biological activity: AhRR gene expression in BMDCs by qPCR; type: cell-based; details: 24 h, 14 μmol·L^−1 ITE or equivalent amount as NPs
T1 sequence (P30561 10-848): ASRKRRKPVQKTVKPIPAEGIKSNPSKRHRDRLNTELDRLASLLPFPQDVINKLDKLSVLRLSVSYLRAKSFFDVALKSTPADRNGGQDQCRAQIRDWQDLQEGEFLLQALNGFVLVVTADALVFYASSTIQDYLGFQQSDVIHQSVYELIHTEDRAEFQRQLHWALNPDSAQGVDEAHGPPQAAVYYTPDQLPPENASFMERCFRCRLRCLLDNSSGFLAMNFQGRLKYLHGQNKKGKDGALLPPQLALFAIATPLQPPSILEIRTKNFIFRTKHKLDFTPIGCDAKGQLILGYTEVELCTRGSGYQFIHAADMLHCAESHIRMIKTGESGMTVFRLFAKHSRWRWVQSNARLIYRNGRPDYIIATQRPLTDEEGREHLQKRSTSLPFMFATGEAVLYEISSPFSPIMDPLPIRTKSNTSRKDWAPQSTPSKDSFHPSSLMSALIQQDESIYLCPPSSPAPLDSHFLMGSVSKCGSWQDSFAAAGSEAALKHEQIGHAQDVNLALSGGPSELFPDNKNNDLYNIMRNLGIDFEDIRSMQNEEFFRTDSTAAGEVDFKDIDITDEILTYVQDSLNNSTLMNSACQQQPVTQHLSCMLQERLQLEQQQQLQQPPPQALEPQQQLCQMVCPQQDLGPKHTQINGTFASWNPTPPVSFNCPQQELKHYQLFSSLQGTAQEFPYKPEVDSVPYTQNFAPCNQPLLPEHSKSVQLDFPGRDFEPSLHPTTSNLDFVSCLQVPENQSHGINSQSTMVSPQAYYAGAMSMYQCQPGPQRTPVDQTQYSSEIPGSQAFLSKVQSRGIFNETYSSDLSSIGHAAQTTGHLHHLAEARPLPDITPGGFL
Method: Mouse bone marrow dendritic cells: BMDCs were prepared from progenitor cells isolated from the femurs and tibias of female mice between 8 and 10 wk of age, as previously described in Inaba et al. (“Generation of large numbers of dendritic cells from mouse bone marrow cultures supplemented with granulocyte/macrophage colony-stimulating factor”; J Exp Med 1992, 176 (6), 1693-702). Bone marrow cells were plated on 15 cm petri dishes cell culture for a final volume of 20 mL per plate in Iscove's Modified Dulbecco's Medium (IMDM) containing 10% FCS, penicillin/streptomycin 100 μg/ml, L-Glutamine 2 mmol.L^−1 and β-mercapthoethanol 50 μmol.L^−1, and supplemented with 10 ng/ml murine GM-CSF (R&D Systems) for 8 days. Half of the medium was replaced on day 4 of culture.
ITE biological activity. On day 7 of BMDC culture, cells were incubated 24 h with 14 μmol·L^−1 ITE in 0.2% DMSO and equivalent amount of ITE as USPIO-PEG-ITE NPs in water. On day 8, total RNA was prepared by the RNAspin mini kit (GE Healthcare). cDNA was obtained using the RevertAid RT Reverse Transcription Kit (Thermo Scientific) with 1 μg of total RNA. Quantitative PCR (qPCR) was performed with the SYBR Green method using Takyon ROX qPCR SYBR MasterMix blue dTTP (Eurogentec).

[2] = Quantification of NP uptake in organs by VSM magnetometry; type: in vivo, NOD and B6 mice
Method: For mechanistic studies, MRI and histological studies, 3 B6 mice/time points aged 10 and 12 weeks were used as control. 3 Female NOD mice/time points were used as pre-diabetic mice between 10 and 12 weeks of age. NPs were administrated intravenously (i.v.) as a bolus of 200 μmolFe/kg diluted in 200 μL of vehicle (NaCl 0.9%/Glucose 5%).
Quantification of NP uptake in organs by VSM: Pancreas, lung, liver, spleen, kidneys and PLN were collected 1 h, 5 h, 24 h, 48 h and 72 h after intravenous injection of USPIO-PEG-ITE-P3UMPI (200 μmolFe/kg) or vehicle (NaCl 0.9%/Glucose 5%) in NOD and B6 mice. Collected organs were frozen in liquid nitrogen, lyophilized and ground to a powder using a mortar and pestle. Sample magnetism was analyzed by a VSM (VSM Quantum Design, Versalab) at room temperature. Amount of iron per organ was calculated from the NP magnetization at saturation (expressed in emu/g of iron).

COC(=O)c1csc(C(=O)c2c[nH]c3ccccc23)n1 [ITE, 2-(1′H-indole-3′-carbonyl)-thiazole-4-carboxylic acid methyl ester]
Solubility (Solubility): soluble only in DMSO and ethanol | AhRR expression [1]: induced | Estimation of drug dose released in pancreas: ITE ([2]; B6 mice, 1 H after iv injection of USPIO-PEG-ITE-P3UmPI, considering no drug release before pancreas targeting): 0.39 mmol | Estimation of drug dose released in pancreas: ITE ([2]; B6 mice, 5 H after iv injection): 0.99 mmol | Estimation of drug dose released in pancreas: ITE ([2]; B6 mice, 24 H after iv injection): 0 mmol | Estimation of drug dose released in pancreas: ITE ([2]; B6 mice, 48 H after iv injection): 0.15 mmol | Estimation of drug dose released in pancreas: ITE ([2]; B6 mice, 72 H after iv injection): 0.33 mmol | Estimation of drug dose released in pancreas: ITE ([2]; NOD mice, 1 H after iv injection): 1.54 mmol | Estimation of drug dose released in pancreas: ITE ([2]; NOD mice, 5 H after iv injection): 2.98 mmol | Estimation of drug dose released in pancreas: ITE ([2]; NOD mice, 24 H after iv injection): 0.37 mmol | Estimation of drug dose released in pancreas: ITE ([2]; NOD mice, 48 H after iv injection): 1.78 mmol | Estimation of drug dose released in pancreas: ITE ([2]; NOD mice, 72 H after iv injection): 0.91 mmol
